Data from paper PMC2747815 (Journal of immunotherapy (Hagerstown, Md. : 1997), 2009).

B1: OVA: recombinant full-length OVA protein purchased from Sigma, control protein (protein, UniProt P01012 1-386, looked up)
chain: MGSIGAASMEFCFDVFKELKVHHANENIFYCPIAIMSALAMVYLGAKDSTRTQINKVVRFDKLPGFGDSIEAQCGTSVNVHSSLRDILNQITKPNDVYSFSLASRLYAEERYPILPEYLQCVKELYRGGLEPINFQTAADQARELINSWVESQTNGIIRNVLQPSSVDSQTAMVLVNAIVFKGLWEKAFKDEDTQAMPFRVTEQESKPVQMMYQIGLFRVASMASEKMKILELPFASGTMSMLVLLPDEVSGLEQLESIINFEKLTEWTSSNVMEERKIKVYLPRMKMEEKYNLTSVLMAMGITDVFSSSANLSGISSAESLKISQAVHAAHAEINEAGREVVGSAEAGVDAASVSEEFRADHPFLFCIKHIATNAVLFFGRCVSP
modifications: full-length

Experiments:
[1] = tested on: LN cells of TRP1-/-//DR4+ (KO) and TRP1+/-//DR4+ (WT) mice, antigen pulsed onto DR4+ 1088 EBV-B; test: Ex vivo IFN-γ ELISPOT of LN cells from hTRP-1-immunized KO and WT mice; type: cell-based, mouse; conditions: for ex vivo ELISPOT reactivity, KO-derived compared with WT-derived CD4+ T cells: peptide 100 μM or protein 50 μg/ml pulsed onto 1088 EBV-B, 24 hours; for T cell frequency by ex vivo IFN-γ ELISPOT titration (mean): peptide 100 μM, Fig. 2D
[2] = tested on: LN cells of DR4 Tg mice, antigen pulsed onto DR4+ 1088 EBV-B; test: IFN-γ ELISA of expanded LN T cells from mTRP-1-immunized DR4 Tg mice; type: cell-based, mouse; conditions: protein pulsed onto DR4+ 1088 EBV-B at 25 μg/ml; compared with mTRP-1 protein
HLA-DR4 (HLA-DRB1*0401) = HLA-DR4 (HLA-DRB1*0401) (Homo sapiens, UniProt P01903+P01911, A100K/A169T/F76Y/I96L/K127E/L162R/M171V/N62H/P40V/Q125Y/R42H/S133A/S149N/S66Y/V115G/V209L/W38E); conditions: competitive binding assay, purified class II, 48h in PBS with NP40; Fig. 1B

| Molecule | ex vivo ELISPOT reactivity, KO-derived compared with WT-derived CD4+ T cells [1] | specific IFN-γ secretion by ELISA, protein [2] | T cell frequency by ex vivo IFN-γ ELISPOT titration (mean) ([1]; TRP1+/-//DR4+ (WT) LN cells) | T cell frequency by ex vivo IFN-γ ELISPOT titration (mean) ([1]; TRP1-/-//DR4+ (KO) LN cells) | relative affinity (IC50), human variant compared with murine counterpart (HLA-DR4 (HLA-DRB1*0401)) |
| --- | --- | --- | --- | --- | --- |
| mTRP-1 protein: recombinant murine TRP-1 protein | significantly greater | – | – | – | – |
| hTRP-1 protein: recombinant human TRP-1 protein | significantly greater | superior | – | – | – |
| hTRP-1_277-297: HLA-DRB1*0401-restricted epitope from human TRP-1, positions 277-297 (ISPNSVFSQWRVVCDSLEDYD; UniProt P17643 277-297, looked up, fragment) | – | – | 158 | 163 | nearly three times less |
| B1 | – | No significant immune response | – | – | – |
